According to EP4737449A1 (Changchun Genescience Pharmaceutical Co., Ltd., priority 2023, dated 2025):

Legend:
p53-Y220C mutant protein = molecular target: T1, p53-Y220C mutant protein (Homo sapiens, UniProt P04637, Y220C); experiment: In vitro DNA binding activity assay (TR-FRET); assay type: biochemical; details: concentration required to increase the binding activity of protein to DNA by 50%
T1 construct: The recombinant Y220C p53 DBD protein with his-tag
Procedure, shortened: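 SC150, the compound concentration increasing p53-Y220C DNA binding by 50% relative to vehicle, came from background-corrected 665/615 nm TR-FRET ratios. His-tagged DBD and compound were preincubated 60 min at RT before biotin-DNA plus Eu-anti-His/streptavidin-d2 detection overnight in the dark.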

PXR = molecular target: T2, PXR (Homo sapiens, UniProt O75469); experiment: PXR activity test in DPX2 cells (luciferase); assay type: cell-based; details: for Activation fold: DPX2 cells, 24 h; for Percentage relative to positive control: positive control rifampicin
T2 construct: expressed in transfected cells; host or cells: DPX2 cells
T2 sequence (O75469 1-434): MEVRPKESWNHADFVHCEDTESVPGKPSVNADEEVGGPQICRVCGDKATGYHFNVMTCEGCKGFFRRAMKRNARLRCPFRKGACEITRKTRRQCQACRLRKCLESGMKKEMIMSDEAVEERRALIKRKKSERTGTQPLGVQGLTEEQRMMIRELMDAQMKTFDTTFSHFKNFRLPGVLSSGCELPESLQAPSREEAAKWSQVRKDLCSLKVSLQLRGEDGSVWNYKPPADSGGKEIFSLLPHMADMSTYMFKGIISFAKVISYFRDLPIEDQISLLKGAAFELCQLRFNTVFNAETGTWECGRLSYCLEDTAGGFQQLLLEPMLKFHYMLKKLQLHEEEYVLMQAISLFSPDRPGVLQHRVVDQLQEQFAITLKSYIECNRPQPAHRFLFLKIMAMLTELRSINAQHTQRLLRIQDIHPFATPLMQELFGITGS
Protocol: The cells were digested when they covered 80-90% of the bottom of the flask. • 3) The surface of the T-75 cultured cells was washed with 10 mL of PBS, PBS was removed by pipetting, 3-5 mL of trypsin was added, the cells were digested at 37°C for 5 min or until the cells were completely digested and in a suspended state, and excessive culture medium containing fetal bovine serum was added to terminate trypsin digestion. • 4) The cell suspension was transferred to a conical-bottom centrifuge tube and centrifuged at 150 g for 5 min at room temperature. The supernatant was carefully removed by pipetting and the cells were re-suspended in treatment medium to have a concentration of 3.2×10^5 cells/mL (incubation time 24 h, plate seeding density […]). In a 384-well cell culture plate, 25 μL of cell suspension was added to each well. The cell plate was placed in an incubator at 95% humidity, 37°C, and 5% CO2 for 24 h. […] The cell plates were placed in an incubator and further incubated for 24 h. • 3) Before starting experiments with the substrate, cell morphology and monolayer integrity were checked to ensure the monolayer is of acceptable quality for studies. […] GF-AFC substrate (10 μL) was added to Assay Buffer (10 ml) to form 2X reagent, which was then diluted into 1X reagent with 10 mL of PBS. ONE-Glo Luciferase substrate was added to ONE-Glo Luciferase Assay Buffer. • 3) The culture plate was taken out of the incubator, the culture medium was discarded, 1X CellTiter-Fluor^TM reagent was poured into the sample loading slot, 25 μL of reagent was added to each well of the culture plate using a pipetting workstation, and then the plate was placed in the incubator for incubation for 30 min. • 4) The cell culture plate was taken out from the incubator, cooled slightly to room temperature, and the fluorescence value was measured by automatic quantitative microplate reader. […] The activation fold of mRNA is calculated using the following formula: Fold activation = (RLUtest/RFUtest)/(RLUvehicle/RFUvehicle) [formula] 2) The percentage of cell viability of the compound is calculated as follows: Cell Viability % = (RFUtest/RFUvehicle) × 100 [formula] 3) The percentage relative to the positive control is calculated according to the following formula: Percent of positive control(%) = (Foldactivationtest/[…]:?}

[1] = Concentration 1 (µM per method)
[2] = Concentration 10 (µM per method)

SMILES: CN1CC[C@@H](Nc2cccc3c(CC(F)(F)F)c(C#CCNC(=O)c4cnn(C(C)(C)C)c4)nn23)[C@@H](F)C1 [Compound 001, 1-tert-butyl-N-[3-(7-{[(3S,4R)-3-fluoro-1-methylpiperidin-4-yl]amino}-3-(2,2,2-trifluoroethyl)pyrazolo[1,5-a]pyridin-2-yl)prop-2-yn-1-yl]-1H-pyrazole-4-carboxamide]
- SC150 (p53-Y220C mutant protein): 10 nM
- Activation fold (PXR; [1]): 1.41
- Percentage relative to positive control (PXR; [1]): 8.07%
- Activation fold (PXR; [2]): 3.05
- Percentage relative to positive control (PXR; [2]): 17.50%

SMILES: CN1CC[C@@H](Nc2cccc3c(CC(F)(F)F)c(C#CCNC(=O)c4cnn(C(C)(C)C)c4N)nn23)[C@@H](F)C1 [Compound 047]
- SC150 (p53-Y220C mutant protein): 7 nM
- Activation fold (PXR; [1]): 1.12
- Percentage relative to positive control (PXR; [1]): 5.67%
- Activation fold (PXR; [2]): 2.66
- Percentage relative to positive control (PXR; [2]): 13.47%

SMILES: CCn1ncc(C(=O)NCC#Cc2nn3c(N[C@@H]4CCN(C)C[C@@H]4F)cccc3c2CC(F)(F)F)c1N [Compound 261, 5-amino-1-ethyl-N-[3-(7-{[(3S,4R)-3-fluoro-1-methylpiperidin-4-yl]amino}-3-(2,2,2-trifluoroethyl)pyrazolo[1,5-a]pyridin-2-yl)prop-2-yn-1-yl]-1H-pyrazole-4-carboxamide]
- SC150 (p53-Y220C mutant protein): 6 nM
- Activation fold (PXR; [1]): 0.89
- Percentage relative to positive control (PXR; [1]): 4.48%
- Activation fold (PXR; [2]): 1.43
- Percentage relative to positive control (PXR; [2]): 7.20%

SMILES: CNC(=O)c1ccc(NCC#Cc2cc3c(N[C@@H]4CCN(C)C[C@@H]4F)cccc3n2CC(F)(F)F)c(OC)c1 [Control compound, reference compound]
- SC150 (p53-Y220C mutant protein): 14 nM
- Activation fold (PXR; [1]): 1.40
- Percentage relative to positive control (PXR; [1]): 8.61%
- Activation fold (PXR; [2]): 8.58
- Percentage relative to positive control (PXR; [2]): 52.82%
